Patent US11083724B2, “Rimegepant for CGRP related disorders” (Biohaven Pharmaceutical Holding Company Ltd., priority 2018, dated 2021)

Experiments:
[1] = tested on: subjects with Acute Migraines; assay: Pooled adverse event and liver function test data, Studies 301, 302 and 303; assay type: in vivo, human; details: for bilirubin elevations > 2 × ULN: across Studies 301, 302 and 303
[2] = tested on: subjects with Acute Migraines; assay: Study 302 (BHV3000-302, NCT03237845): Phase 3 double-blind placebo-controlled trial, rimegepant 75 mg tablet, acute treatment of migraine; assay type: in vivo, human; details: for Percent (%) difference of Patients Pain Free: Rimegepant versus Placebo: no rescue meds, Kaplan-Meier estimates; for Freedom from MBS at 2 hours / Pain Freedom (pain-free) at 2 hours: N = 537
Protocol: Clinical Trial—BHV3000-302: Phase 3: Double-Blind, Randomized, Placebo-Controlled, Safety and Efficacy Trial of BHV-3000 (Rimegepant) for the Acute Treatment of Migraine (ClinicalTrials.gov Identifier: NCT03237845) A phase 3 clinical study was conducted with 1503 participants, as follows. The purpose of this study is to compare the efficacy of BHV-3000 (rimegepant) versus placebo in subjects with Acute Migraines Study Design • Study Type: Interventional (Clinical Trial) • Actual Enrollment: 1503 participants • Allocation: Randomized • Intervention Model: Parallel Assignment • Intervention Model Description: Double-blind to Sponsor, Investigator and Subject • Masking: Triple (Participant, Care Provider, Investigator) • Masking Description: Double-blind to Sponsor, Investigator and Subject • Primary Purpose: Treatment • Official Title: BHV3000-302: Phase 3: Double-Blind, Randomized, Placebo-Controlled, Safety and Efficacy Trial of BHV-3000 (Rimegepant) for the Acute Treatment of Migraine • Actual Study Start Date: Jul. 26, 2017 • Primary Completion Date: Jan. 25, 2018 • Study Completion Date: Jan. 31, 2018 Arms and Interventions Outcome Measures Primary Outcome Measures: • 1. Pain Freedom of rimegepant (75 mg tablet) compared with placebo in the acute treatment of migraine will be measured using the number of evaluable subjects that report no pain at 2 hours post-dose. [Time Frame: Two hours post dose] • Pain will be measured on a 4 point Likert scale (0=none, 1=mild, 2=moderate, 3=severe) • 2. Freedom from the most bothersome symptom (MBS) of rimegepant (75 mg tablet) compared with placebo will be measured using the number of evaluable subjects that report the absence of their MBS at 2 hours post-dose. [Time Frame: Two hours post dose] • The MBS (nausea, phonophobia or photophobia) will measured using a binary scale (0=absent, 1=present). Secondary Outcome Measures: • 1. […] [Time Frame: 2 hours-24 hours post-dose] • Sustained Pain Freedom as measured by a 4 point numeric rating scale (None, Mild, Moderate, Severe) • 2. Rimegepant (75 mg tablet) compared to placebo by tabulating the number of subjects that report the absence of photophobia at 2 hours post-dose in the subset of subjects that reported the presence of photophobia at headache baseline. [Time Frame: 2 hours post-dose] • Freedom from Photophobia • 3. Rimegepant (75 mg tablet) compared to placebo by tabulating the number of subjects that report the absence of phonophobia at 2 hours post-dose in the subset of subjects that reported the presence of phonophobia at headache baseline. [Time Frame: 2 hours post-dose] • Freedom from Phonophobia • 4. To measure rimegepant (75 mg tablet) compared to placebo on Pain Relief, at 2 hours post-dose, that report a pain level of moderate or severe at baseline and then report a pain level of none or mild. [Time Frame: 2 hours post-dose] • Pain Relief as measured by a 4 point numeric rating scale (None, Mild, Moderate, Severe) • 5. Freedom from Nausea will by tabulating the number of subjects that report the absence of nausea at 2 hours post-dose in the subset of subjects that reported the presence of nausea at headache baseline. [Time Frame: 2 hours post-dose] • Freedom from Nausea • 6. To measure rimegepant (75 mg tablet) compared to placebo on the probability of requiring rescue medication will be assessed using the number of subjects that take rescue medication within […] administration of study medication (BHV3000 or placebo). [Time Frame: up to 24 hours post-dose] • Requiring Rescue Medication • 7. […] [Time Frame: 2 hours-48 hours post-dose] • Sustained Pain Freedom as measured by a 4 point numeric rating scale (None, Mild, Moderate, Severe) • 8. […] [Time Frame: 2 hours-24 hours post-dose] • Sustained Pain Relief as measured by a 4 point numeric rating scale (None, Mild, Moderate, Severe) • 9. […] [Time Frame: 2 hours-48 hours post-dose] • Sustained Pain Relief as measured by a 4 point numeric rating scale (None, Mild, Moderate, Severe) • 10. […]

[3] = pooled Studies 301, 302, 303, n = 1,771
[4] = pooled Studies 301, 302, 303, n = 1,771, AST elevation, not drug-related
[5] = pooled Studies 301, 302, 303, within 48 hours post-dose, n = 1,771
[6] = Study 302, single 75 mg tablet, listed as rimegepant

N[C@@H]1c2cccnc2[C@H](OC(=O)N2CCC(n3c(=O)[nH]c4ncccc43)CC2)CC[C@H]1c1cccc(F)c1F [Rimegepant, [(5S,6S,9R)-5-amino-6-(2,3-difluorophenyl)-6,7,8,9-tetrahydro-5H-cyclohepta[b]pyridin-9-yl] 4-(2-oxo-3H-imidazo[4,5-b]pyridin-1-yl)piperidine-1-carboxylate]
bilirubin elevations > 2 × ULN [1]: *AST/ALT Categories are not mutually exclusive; No bilirubin elevations > 2 × ULN across Studies 301, 302 and 303
bilirubin elevations > 2 × ULN ([1]; listed as rimegepant): no patients
drug-related Serious Adverse Events (SAEs) ([1]; pooled Studies 301, 302, 303): **No drug-related Serious Adverse Events (SAEs). 2 of the subjects with SAE in rimegepant group and 1 in placebo group had not been dosed before onset of SAE.
ALT or AST >3 × ULN, number of subjects [1, 3]: 2
ALT or AST >3 × ULN, percent of subjects [1, 3]: (0.1%)
ALT or AST >20 × ULN, number of subjects [1, 3]: 0
ALT or AST >ULN, number of subjects [1, 3]: 48
ALT or AST >ULN, percent of subjects [1, 3]: (2.7%)
SAEs, number of patients [1, 3]: 3
SAEs, percent of patients [1, 3]: 0.2%
ALT or AST >5 × ULN, number of subjects [1, 4]: 1
ALT or AST >5 × ULN, percent of subjects [1, 4]: (0.06%)^2
AE Nausea, number of patients [1, 5]: 26
AE Nausea, percent of patients [1, 5]: 1.5%
AE UTI, number of patients [1, 5]: 21
AE UTI, percent of patients [1, 5]: 1.2%
≥1 On-Study AE, number of patients [1, 5]: 252
≥1 On-Study AE, percent of patients [1, 5]: 14.2%
SAEs related to the study drug ([2]; Study 302): No SAEs
bilirubin elevations greater than 2 times ULN ([2]; Study 302): no bilirubin elevations
transaminase level greater than 3 times ULN ([2]; Study 302): No subject
AE urinary tract infection ([2]; Study 302, 8/543): 1.5%
AE nausea ([2]; Study 302, 10/543): 1.8%
Serum ALT or AST levels greater than ULN ([2]; Study 302, 13/543): 2.4%
Percent (%) difference of Patients Pain Free: Rimegepant versus Placebo ([2]; Study 302, 2 hours post single dose 75 mg): 7%
Percent (%) difference of Patients Pain Free: Rimegepant versus Placebo ([2]; Study 302, 3 hours post single dose 75 mg): 13%
Percent (%) difference of Patients Pain Free: Rimegepant versus Placebo ([2]; Study 302, 4 hours post single dose 75 mg): 19%
Percent (%) difference of Patients Pain Free: Rimegepant versus Placebo ([2]; Study 302, 6 hours post single dose 75 mg): 22%
Percent (%) difference of Patients Pain Free: Rimegepant versus Placebo ([2]; Study 302, 8 hours post single dose 75 mg): 19%
functional disability: patients achieving normal function at 2 hours versus placebo ([2]; Study 302, P<0.0001): greater proportion
Serious AEs (SAEs), subjects ([2]; Study 302, back pain): 1 subject
Free from MBS at 2 hours, subjects [n/N] ([2]; Study 302, single 75 mg tablet): [202/537]
Nausea-free at 2 hours ([2]; Study 302, single 75 mg tablet): 48.1%
Nausea-free at 2 hours, subjects [n/N] ([2]; Study 302, single 75 mg tablet): [171/355]
Pain relief at 2 hours ([2]; Study 302, single 75 mg tablet): 58.1%
Pain relief at 2 hours, subjects [n/N] ([2]; Study 302, single 75 mg tablet): [312/537]
Pain-free at 2 hours, subjects [n/N] ([2]; Study 302, single 75 mg tablet): [105/537]
Phonophobia-free at 2 hours ([2]; Study 302, single 75 mg tablet): 36.7%
Phonophobia-free at 2 hours, subjects [n/N] ([2]; Study 302, single 75 mg tablet): [133/362]
Photophobia-free at 2 hours ([2]; Study 302, single 75 mg tablet): 37.4%
Photophobia-free at 2 hours, subjects [n/N] ([2]; Study 302, single 75 mg tablet): [183/489]
Sustained pain relief, 2-24 hours ([2]; Study 302, single 75 mg tablet): 42.6%
Sustained pain relief, 2-24 hours, subjects [n/N] ([2]; Study 302, single 75 mg tablet): [229/537]
Freedom from MBS at 2 hours ([2]; Study 302, single 75 mg tablet): 37.6%
Pain Freedom (pain-free) at 2 hours ([2]; Study 302, single 75 mg tablet): 19.6%
Freedom from MBS at 2 hours [2, 6]: 37.6%
Pain Freedom (pain-free) at 2 hours [2, 6]: 19.6%
Pain relief at 2 hours [2, 6]: 58.1%
sustained pain relief from 2 through 48 hours postdose versus placebo ([2]; Study 302, single dose, no rescue medication, P<0.0001): superiority versus placebo
sustained pain freedom from 2 through 48 hours postdose versus placebo ([2]; Study 302, single dose, no rescue medication, P=0.0181): superiority versus placebo
